Inhibition data for four compounds are collected here from ChEMBL document CHEMBL1221215, “A domino effect in antifolate drug action in Escherichia coli” (Nat Chem Biol, 2008).

The source made the active and inactive calls. No cut-off for these calls is given here.

The test addresses T1, Dihydrofolate synthase/folylpolyglutamate synthase (Escherichia coli (strain K12)) (UniProt P08192).
T1 sequence (whole entry): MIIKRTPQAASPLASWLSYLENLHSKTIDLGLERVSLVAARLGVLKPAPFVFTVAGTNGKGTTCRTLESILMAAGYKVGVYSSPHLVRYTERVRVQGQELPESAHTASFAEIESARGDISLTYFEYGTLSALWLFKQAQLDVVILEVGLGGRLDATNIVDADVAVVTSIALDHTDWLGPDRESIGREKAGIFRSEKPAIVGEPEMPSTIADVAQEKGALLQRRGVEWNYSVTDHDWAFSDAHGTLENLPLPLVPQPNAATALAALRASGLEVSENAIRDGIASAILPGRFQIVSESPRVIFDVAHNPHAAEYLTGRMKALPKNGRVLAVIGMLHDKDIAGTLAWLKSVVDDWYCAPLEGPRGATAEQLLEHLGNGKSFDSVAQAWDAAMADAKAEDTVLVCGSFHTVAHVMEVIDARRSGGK
Description: Inhibition of Escherichia coli K-12 recombinant His-tagged folylpoly-gamma-glutamate synthetase expressed in Escherichia coli BL21 at 200 uM LC-MS/MS method. Conditions: NCM3722.
As for `Nc1nc(=O)c2nc(CNc3ccc(C(=O)N[C@@H](CCC(=O)O)C(=O)O)cc3)cnc2[nH]1`, the inhibition entry was “inactive”.

For `COc1cc(Cc2cnc(N)nc2N)cc(OC)c1OC`, the inhibition entry was “inactive”. With `Nc1nc(=O)c2c([nH]1)NCC(CNc1ccc(C(=O)N[C@@H](CCC(=O)O)C(=O)O)cc1)=N2`, the inhibition entry was “Active”.

On to `CN1c2c([nH]c(N)nc2=O)NCC1CNc1ccc(C(=O)N[C@@H](CCC(=O)O)C(=O)O)cc1` (some centres undefined), for which the inhibition result is “inactive”.
